Consider 1 molecule from publication PMC5465257, “Evaluation of JNJ-54717793 a Novel Brain Penetrant Selective Orexin 1 Receptor Antagonist in Two Rat Models of Panic Attack Provocation” (Frontiers in Pharmacology, 2017).

Data set [1] concerns C57Bl6 OX2R knockout (KO) mice. The data set can be described thus: Sleep recording (EEG/EMG) in OX2R knockout mice. Type of data set: in vivo, mouse. How it is done:
(§1) Sleep experiments were conducted in male Sprague-Dawley rats (350–450 g, Harlan Laboratories, Livermore, CA, United States) and in male C57Bl6 OX2R knockout (KO) and corresponding wild-type mice (30–35 g, Charles River Laboratories, San Diego, CA, United States) as described previously ([Dugovic et al., 2009]). Animals were chronically implanted with telemetric devices (Data Sciences International, St. Paul, MN, United States) for the recording of electroencephalogram (EEG) and electromyogram (EMG) signals. Polysomnographic waveforms were analyzed per 10-s epoch and classified as wake, non-rapid eye movement (NREM) or REM sleep by using the computer software program SleepSign (Kissei Comtec, Nagano, Japan). For each experiment, EEG and EMG signals were recorded for up to 6 h after administration of the tested compounds. Analysis of sleep parameters included latency to NREM sleep (defined as the time interval to the first six consecutive NREM epochs) and REM sleep (the first two consecutive REM epochs post-treatment), and the duration of NREM and REM.
(§2) Results were averaged and expressed as mean ± SEM in defined time intervals. To determine whether differences were significant at a given interval, either paired Student’s t-test or two-way analysis of variance (ANOVA) (interaction time × treatment), repeated measures followed by Bonferroni post hoc test was performed.
(§3) In the present study, the in vivo functional target engagement was investigated in a model of permanent inhibition of OX2R, and the effects of JNJ-5471773 on sleep-wake states were examined in mice lacking the OX2R relative to their corresponding wild-type mice. […] NREM sleep latency and duration were not affected in both genotypes (not shown).

Data set [2] has as its system panel of 50 receptors, ion channels and transporters. The data set can be described thus: Selectivity binding panel of 50 receptors, ion channels and transporters (Eurofins). The conditions noted are these: at 10 μM; any receptor/transporter/ion channel other than the OX1R.
Method: These assays were performed by Eurofins (Celles L’Evescault, France).
The subject of the next data set is wild-type mice. Put plainly: Sleep recording (EEG/EMG) in wild-type mice. Format: in vivo, mouse. How it is done: as §1, §2, §3
For the next data set, the system named is Sprague-Dawley rats. The data set can be described thus: Sodium lactate panic provocation model (1-allyglycine treated rats). How it is done: Experiments were performed in male Sprague-Dawley rats (300–350 g, Harlan Laboratory, Indianapolis, IN, United States). Prior to and during surgeries, rats were anesthetized with a nose cone connected to an isoflurane system (MGX Research Machine; Vetamic, Rossville, IN, United States). Radiotelemetry probes [Cat. no. HD-S11, Data Sciences International, St. Paul, MN, United States] were surgically implanted into the peritoneal cavity and sutured to the muscle wall in order to assess general motor activity. A pressure transducer was implanted into the femoral artery to assess cardiovascular responses [i.e., mean arterial blood pressure (MAP) and heart rate (HR)]. Rats were also fitted with femoral venous catheters for 0.5 M i.v. sodium lactate (NaLac) infusions, as previously described ([Shekhar et al., 1996]). After 3–5 days of recovery, rats were anesthetized and 26 gauge T-shaped cannulae (Cat. no. 3260PG, Plastics One, Inc., Roanoake, VA, United States) were directed at cardio-excitatory Perifornical hypothalamic area regions [([Shekhar and Keim, 1997]) bregma: 1.2 mm posterior, +2.1 mm lateral, +9.1 mm ventral and adjusted for approaching at a 10° angle toward the midline with the stereotaxic incisor bar elevated 5 mm above the interaural line] and cemented into place. The 22 gauge side arm was then attached, via PE-60 tubing, to an osmotic minipump (prefilled with 1-allyglycine solution chronically infused at 3.5 nmol/0.5 μl per hour) and sutured into place subcutaneously at the nape of the neck (DURECT Corporation, Model no. 2002).
Five days following 1-allyglycine infusion onset, in a counterbalanced design and with 48 h between crossover, rats were orally dosed with either JNJ-54717793 at 3, 10, or 30 mg/kg, or vehicle as a control group 60 min prior to the 15 min 0.5 M sodium lactate challenge. […] The data reported are changes in mean arterial blood pressure, HR, and activity from the average of the baseline (t-5 to t-1) from each rat.
Baseline SI testing was done 7–8 days following radiotelemetry surgery recovery, and repeated again 2–3 days later during drug treatment crossover. On experimental drug testing days, the SI test was performed 5 min after the offset of the sodium lactate challenge with different partners each time. The SI box dimension were 0.9 m long × 0.9 m wide × 0.3 m height. […] All behavioral tests were digitally videorecorded with a camera above the box. The “experimental” rat and an unfamiliar “partner” rat were both allowed to individually habituate to the box for a 5 min period 24 h prior to each SI test. During the SI test, the two rats were placed together in the center of the box, and the total duration (sec) of non-aggressive physical contact (grooming, sniffing, crawling over and under, etc.) initiated by the “experimental” rat is quantified over a 5 min duration. A baseline SI test was performed at least 72 h after i.v. catheterization, but prior to osmotic minipump implantation. Another SI test was performed 5 days following minipump infusions and immediately following saline or sodium lactate infusions. Video recorded sessions were scored at a later time by Stephanie D Fitz, whom was blind to any drug treatment.
Each dependent variable for assessment of behavior and radiotelemetry data was respectively analyzed using a one way ANOVA, or a one way ANOVA with repeated measures with drug treatment as the main factor and time as repeated measures. In the presence of significant main effects post hoc tests were conducted using a parametric Fisher’s LSD test. Within subjects time effects were also assessed using a Dunnett’s one way analysis with the minute prior to the i.v infusion used as the control.

Setting [3] is: rats, after sodium lactate challenge.

In the case of `O=C(c1cccc(F)c1-c1ncccn1)N1[C@@H]2CC[C@H]1[C@H](Nc1cnc(C(F)(F)F)cn1)C2` [JNJ-54717793, (1S,2R,4R)-7-([(3-fluoro-2-pyrimidin-2-ylphenyl)carbonyl]-N-[5-(trifluoromethyl)pyrazin-2-yl]-7-azabicyclo[2.2.1]heptan-2-amine)], the “NREM sleep latency and duration” value in data set [1] (30 mg/kg oral (not shown)) is on record as “not affected”. Further, the “time spent in REM sleep” value in data set [1] (30 mg/kg oral, first 6 h post-treatment, versus vehicle) is “prolonged”. In addition, the “latency for REM sleep” value in data set [1] (30 mg/kg oral, versus vehicle) is given as “significantly reduced”. The “inhibition in selectivity panel” value in data set [2] is less than 50%. Also, in the data set on wild-type mice (30 mg/kg oral), the REM sleep duration entry is recorded as “did not alter” and the REM sleep latency entry was “slightly reduced”. In addition, the “NREM sleep latency and duration” value in the data set on wild-type mice (30 mg/kg oral (not shown)) is reported as “not affected”. In addition, the “sodium lactate-induced pressor response (MAP)” value in the data set with Sprague-Dawley rats (rats, 10 mg/kg p.o., t3 timepoint, no overall treatment effect) is recorded as “attenuation of pressor response”. The “sodium lactate-induced tachycardia (HR)” value with Sprague-Dawley rats (rats, 3, 10, 30 mg/kg p.o., compared to vehicle) is given as “did not attenuate”. Besides, the locomotion entry in the data set on Sprague-Dawley rats (rats, 3, 10, 30 mg/kg p.o., sodium lactate did not increase locomotion) is given as “did not significantly alter”. Also, in the data set on Sprague-Dawley rats (setting [3]), the “center or middle times in the open field test” value is reported as “Nor was there an effect” and the “sedative effects (line crossings) in the open field test” value was “no apparent sedative effects”. The “sodium lactate-induced anxiety behavior in the SI test” value with Sprague-Dawley rats (rats, highest dose (30 mg/kg p.o.)) was “attenuate/block”.
